Key:
Assay type in all cases: functional, organism-based
[1] = test system: Plasmodium falciparum; assay: Antimalarial activity against Plasmodium falciparum 3D7 infected in human A positive erythrocytes assessed as reduction in parasite growth incubated for 24 hrs by [3H]hypoxanthine based scintillation counting analysis; conditions: 3D7, Erythrocyte
[2] = test system: Plasmodium falciparum; assay: Antimalarial activity against chloroquine-resistant Plasmodium falciparum K1 infected in human A positive erythrocytes assessed as reduction in parasite growth incubated for 24 hrs by [3H]hypoxanthine based scintillation counting analysis; conditions: K1, Erythrocyte
[3] = test system: Plasmodium falciparum; assay: Antimalarial activity against Plasmodium falciparum 3D7 infected in erythrocytes assessed as inhibition of parasite growth incubated for 48 hrs by SYBR-Green I fluorescence-based assay; conditions: 3D7, Erythrocyte
[4] = test system: Plasmodium falciparum; assay: Antimalarial activity against Plasmodium falciparum INDO infected in erythrocytes assessed as inhibition of parasite growth incubated for 48 hrs by SYBR-Green I fluorescence-based assay; conditions: Erythrocyte
[5] = test system: Plasmodium falciparum; assay: Antimalarial activity against chloroquine-resistant Plasmodium falciparum FcB1 assessed as inhibition of parasite growth
[6] = test system: Plasmodium falciparum; assay: Antiplasmodial activity against chloroquine-sensitive erythrocyte stage Plasmodium falciparum 3D7 assessed as inhibition of parasite growth incubated for 3 days by ELISA; conditions: 3D7, Erythrocyte, 72 h
[7] = test system: Plasmodium falciparum; assay: Antiplasmodial activity against chloroquine-resistant erythrocyte stage Plasmodium falciparum Dd2 assessed as inhibition of parasite growth incubated for 3 days by ELISA; conditions: 72 h
[8] = test system: Plasmodium falciparum; assay: Antimalarial activity against chloroquine-resistant Plasmodium falciparum K1 assessed as reduction in parasite growth incubated for 72 hrs by ELISA; conditions: K1, 72 h
[9] = test system: Plasmodium falciparum; assay: Antimalarial activity against chloroquine-resistant Plasmodium falciparum K1 assessed as reduction in parasite growth
[10] = test system: Plasmodium falciparum; assay: Antimalarial activity against chloroquine-sensitive Plasmodium falciparum 3D7 assessed as reduction in parasite growth
[11] = test system: Plasmodium falciparum; assay: Antimalarial activity against chloroquine-sensitive Plasmodium falciparum D10 transfected in human type A-positive RBC cells assessed reduction in parasite growth by measuring LDH activity incubated for 72 hrs by spectrophotometric analysis
[12] = test system: Plasmodium falciparum; assay: Antimalarial activity against chloroquine-resistant Plasmodium falciparum W2 transfected in human type A-positive RBC cells assessed reduction in parasite growth by measuring LDH activity incubated for 72 hrs by spectrophotometric analysis
[13] = test system: Plasmodium falciparum; assay: Antimalarial activity against chloroquine-resistant Plasmodium falciparum K1
[14] = test system: Plasmodium falciparum; assay: Antiplasmodial activity against multi-resistant Plasmodium falciparum W2 infected in erythrocytes assessed as inhibition of parasite growth incubated for 48 hrs by flow cytometry; conditions: W2, Erythrocyte
[15] = Plasmodium falciparum, D10, Erythrocyte, 72 h
[16] = Plasmodium falciparum, W2, Erythrocyte, 72 h

`Clc1ccc2[nH]c3c(NCCN4CCOCC4)nccc3c2c1` showed an IC50 [1] of 2.35 µM and an IC50 [2] of 4.95 µM.
Molecule `CCOC(=O)c1cc2c([nH]c3ccccc32)c(-c2ccc(NS(=O)(=O)c3ccc(C)cc3)cc2)n1` has an IC50 [3] of 3.7 µM and an IC50 [4] of 1.9 µM.
In the case of `CCOC(=O)c1cc2c([nH]c3ccccc32)c(-c2ccc(NC(=O)C(C)(C)C)cc2)n1`, the IC50 [3] is reported as 3.5 µM and the IC50 [4] is reported as 2.38 µM.
For `c1ccc2c(CC3NCCc4c3[nH]c3ccccc43)c[nH]c2c1` (stereo unspecified), the IC50 [5] was 9.6 µM.
`C/C(=C\c1ccccc1)C(=O)NCCOc1ccc2c(c1)[nH]c1c(C)nccc12` was tested, and the IC50 [6] was 6.78 µM and the IC50 [7] was 19.5 µM.
For `CC#CCN1CCc2c([nH]c3ccccc23)C1CC(=O)OCC` (stereo unspecified), the IC50 [8] was 13.8 µM.
With `COC(=O)c1cc2c3ccccc3n3c2c(n1)C(c1ccccc1)OC(C)=C3` (stereo unspecified) the IC50 [9] was greater than 5 µM and the IC50 [10] was greater than 5 µM.
With `COC(=O)c1cc2c3ccccc3n3c2c(n1)COC(C)=C3` the IC50 [10] was greater than 5 µM.
`CCOC(=O)c1cc2c([nH]c3ccccc32)c(-c2ccc(/N=C(/Nc3ccc(OC(F)(F)F)cc3)NC3CC3)cc2)n1` showed an IC50 [3] of 1 µM and an IC50 [4] of 0.77 µM.
`CCOC(=O)CC1c2c(c3ccccc3n2C(=O)OC(C)(C)C)CCN1C(=O)OCc1ccccc1` (stereo unspecified) showed an IC50 [8] of 15.5 µM.
With `Clc1ccc2[nH]c3c(N4CCC(N5CCOCC5)CC4)nccc3c2c1` the IC50 [1] was 5.32 µM and the IC50 [2] was 1.9 µM.
In the case of `COc1ccc2c3ccnc(C)c3n(CCNC(=O)/C=C/c3ccc(Cl)cc3)c2c1`, the IC50 [6] is reported as 0.04 µM and the IC50 [7] is reported as 0.17 µM.
`O=C(NCCCN1CCOCC1)C1Cc2c([nH]c3ccccc23)C(c2ccc(Cl)cc2)N1` (stereo unspecified) was tested, and the IC50 [11, 15] was 11.5 µM and the IC50 [12, 16] was 6.15 µM.
With `CCOC(=O)CC1c2[nH]c3ccccc3c2CCN1S(=O)(=O)c1ccc(C)cc1` (stereo unspecified) the IC50 [8] was 13.8 µM.
In the case of `Clc1ccc2[nH]c3c(NCCCn4ccnc4)nccc3c2c1`, the IC50 [1] is reported as 0.45 µM and the IC50 [2] is reported as 0.92 µM.
`CCC1NC(C(=O)NC23CC4CC(CC(C4)C2)C3)Cc2c1[nH]c1ccccc21` (stereo unspecified) gave an IC50 [11, 15] of 9.73 µM and an IC50 [12, 16] of 11.4 µM.
`COC(=O)c1cc2c3cc(Cl)ccc3n3c2c(n1)COC(C)=C3` was tested, and the IC50 [9] was 2.45 µM and the IC50 [10] was 1.78 µM.
`Cc1nccc2c1[nH]c1cc(OCCNC(=O)/C=C/c3ccccc3F)ccc12` was tested, and the IC50 [6] was 0.93 µM and the IC50 [7] was 3.92 µM.
Work on `COC(=O)C1Cc2c([nH]c3ccccc23)C(Cc2c[nH]c3ccccc23)N1` (stereo unspecified) yielded an IC50 [5] of 17.2 µM.
In the case of `CCOC(=O)c1cc2c([nH]c3ccccc32)c(-c2ccc(/N=C(/Nc3ccc(OC)cc3)NC3CC3)cc2)n1`, the IC50 [3] is reported as 7.6 µM and the IC50 [4] is reported as 1.2 µM.
Work on `CC(C)(C)OC(=O)n1c2c(c3ccccc31)CCN(C(=O)OCc1ccccc1)C2CCO` (stereo unspecified) yielded an IC50 [13] of 21.4 µM.
`CCOC(=O)c1cc2c([nH]c3ccccc32)c(-c2ccc(NC(=S)Nc3ccc(OC(F)(F)F)cc3)cc2)n1` gave an IC50 [3] of 18.7 µM and an IC50 [4] of 0.39 µM.
`CCN(CC)CCCC(C)Nc1nccc2c1[nH]c1ccc(Cl)cc12` (stereo unspecified) showed an IC50 [1] of 0.17 µM and an IC50 [2] of 0.24 µM.
Work on `Cc1nccc2c1[nH]c1cc(OCCNC(=O)/C=C/c3ccc(Cl)cc3)ccc12` yielded an IC50 [6] of 0.32 µM and an IC50 [7] of 0.4 µM.
`Cc1nccc2c1[nH]c1cc(OCCNC(=O)/C=C/c3ccc(F)cc3)ccc12` was tested, and the IC50 [6] was 0.15 µM and the IC50 [7] was 0.69 µM.
Work on `Cc1nccc2c1[nH]c1cc(OCCNC(=O)/C=C/c3ccccc3)ccc12` yielded an IC50 [6] of 0.98 µM and an IC50 [7] of 4.7 µM.
For `CC(C)(C)CC(C)(C)NC(=O)C1Cc2c([nH]c3ccccc23)C(c2ccc(Cl)cc2)N1` (stereo unspecified), the IC50 [11, 15] was 8.41 µM and the IC50 [12, 16] was 6.41 µM.
`C/C=C\CC1OC(C)=Cn2c3ccccc3c3cc(C(=O)OC)nc1c32` (stereo unspecified) showed an IC50 [10] greater than 5 µM.
Molecule `COc1ccc2c3ccnc(C)c3n(CCNC(=O)/C=C/c3ccccc3)c2c1` has an IC50 [6] of 0.49 µM and an IC50 [7] of 1.11 µM.
`C=C(C#N)C1OC(C)=Cn2c3ccccc3c3cc(C(=O)OC)nc1c32` (stereo unspecified) showed an IC50 [10] greater than 5 µM.
Work on `CC#CCN1CCc2c(n(C(=O)OC(C)(C)C)c3ccccc23)C1CC(=O)OCC` (stereo unspecified) yielded an IC50 [13] of 29.8 µM.
`C=CCC1OC(C)=Cn2c3ccc(Cl)cc3c3cc(C(=O)OC)nc1c32` (stereo unspecified) showed an IC50 [9] greater than 5 µM and an IC50 [10] greater than 5 µM.
For `CCOC(=O)c1cc2c([nH]c3ccccc32)c(-c2ccc(NC(=S)Nc3ccc(OC)cc3)cc2)n1`, the IC50 [3] was 1.6 µM and the IC50 [4] was 1.8 µM.
For `Fc1ccc2[nH]c3c(NCCCn4ccnc4)nccc3c2c1`, the IC50 [1] was 0.2 µM and the IC50 [2] was 0.41 µM.
With `N#Cc1ccc(C2NCCc3c2[nH]c2ccccc32)cc1` (stereo unspecified) the IC50 [14] was 1.1 µM.
`O=C(NC1CCCCC1)C1Cc2c([nH]c3ccccc23)C(c2ccc(Cl)cc2)N1` (racemic; form 1) showed an IC50 [11, 15] of 16.1 µM and an IC50 [12, 16] of 13.5 µM.
Molecule `O=C(NC1CCCCC1)C1Cc2c([nH]c3ccccc23)C(c2ccc(Cl)cc2)N1` (racemic; form 2) has an IC50 ([11]; rbc) of 12.5 µM and an IC50 ([12]; rbc) of 9.13 µM.
`Nc1nccc(-c2nccc3c2[nH]c2ccccc23)n1` [ANNOMONTINE] gave an IC50 [3] of 3.44 µM and an IC50 [4] of 3.06 µM.
In the case of `O=C(c1c[nH]c2ccc(O)cc12)c1nccc2c1[nH]c1ccc(O)cc12` [HYRTIOSULAWESINE], the IC50 [5] is reported as 1.3 µM.
